# The OligoGym collection
# “And” between values parts separate entries of the source, which are not always exact repeats. Identical values can stand only once. After the bases stand the sugars from the 5' end (letter, count) and the backbone: PS all phosphorothioate, else s phosphorothioate and o phosphodiester by linkage. Methylation of C is not given here. e = 2'-O-(2-methoxyethyl) (MOE); k = constrained ethyl (cEt); d = 2'-deoxy (DNA); m = 2'-O-methyl
# Biological target: HSD17B13
# Settings: ASO, HepaRG
sequence,measurement,setting,value
"GTAATTACTTCTGATG (sugars k3 d10 k3, PS)",target mRNA inhibition,1 µM,41%
"CTAAACTAGTGGTAAT (sugars k3 d10 k3, PS)",target mRNA inhibition,1 µM,23%
"ATTACAGCCTTAGAGT (sugars k3 d10 k3, PS)",target mRNA inhibition,1 µM,56%
"AGAATACGCTGAGAGT (sugars k3 d10 k3, PS)",target mRNA inhibition,1 µM,56%
"TGTCCACCTTTAAATG (sugars k3 d9 k3 e1, PS)",target mRNA inhibition,1 µM,28%
"GTAATTAATCTTGTTC (sugars k3 d10 k3, PS)",target mRNA inhibition,1 µM,52%
"GGCCTGAAGTTCTGAT (sugars k3 d10 k3, PS)",target mRNA inhibition,1 µM,0%
"TTGTGTAGTCCTAGGG (sugars k3 d10 k3, PS)",target mRNA inhibition,1 µM,64%
"ATTCTATAGCTAAGTA (sugars k3 d10 k3, PS)",target mRNA inhibition,1 µM,23%
"TGAGAATTTAAGAGGG (sugars k3 d10 k3, PS)",target mRNA inhibition,1 µM,25%
"AAACATGGATGTTAGG (sugars k3 d10 k3, PS)",target mRNA inhibition,1 µM,56%
"TAGTGCCAAACCAATG (sugars k3 d10 k3, PS)",target mRNA inhibition,1 µM,46% and 61%
"ATACTTTTCCGTCTCA (sugars k3 d10 k3, PS)",target mRNA inhibition,0.02 µM,10%
same,target mRNA inhibition,0.078 µM,41%
same,target mRNA inhibition,0.313 µM,71%
same,target mRNA inhibition,1 µM,90%
same,target mRNA inhibition,1.25 µM,90%
"CTGGAACAATATGGGA (sugars k3 d10 k3, PS)",target mRNA inhibition,1 µM,38%
"TTGCAGTTATTAGAAG (sugars k3 d9 k3 e1, PS)",target mRNA inhibition,1 µM,10%
"AGTTTATATGGATTTG (sugars k3 d10 k3, PS)",target mRNA inhibition,1 µM,67%
"AAGAGCCAAACTGCTA (sugars k3 d10 k3, PS)",target mRNA inhibition,0.02 µM,0%
same,target mRNA inhibition,0.078 µM,0%
same,target mRNA inhibition,0.313 µM,11%
same,target mRNA inhibition,1 µM,63%
same,target mRNA inhibition,1.25 µM,46%
same,target mRNA inhibition,5 µM,66%
"GCACCCCATGGATCTA (sugars k3 d10 k3, PS)",target mRNA inhibition,1 µM,35%
"ACATAGGCTTAGTGTA (sugars k3 d10 k3, PS)",target mRNA inhibition,1 µM,0%
"ATAACCTAATAACTAC (sugars k3 d10 k3, PS)",target mRNA inhibition,1 µM,26%
"TAAGAGAAGGTGCACA (sugars k3 d10 k3, PS)",target mRNA inhibition,1 µM,12%
"GTCTACCTCTAAGTTA (sugars k3 d10 k3, PS)",target mRNA inhibition,1 µM,3%
"TCCACTTGAATTCTGT (sugars k3 d10 k3, PS)",target mRNA inhibition,1 µM,32%
"CCTATATACATCCAAG (sugars k3 d9 k3 e1, PS)",target mRNA inhibition,1 µM,63%
"TTATAACTGAGCTAGA (sugars k3 d10 k3, PS)",target mRNA inhibition,1 µM,8%
"CAGGTTGAGATAAAGC (sugars k3 d9 k3 e1, PS)",target mRNA inhibition,1 µM,63%
"GAGCCTAAAATTGTCT (sugars k3 d10 k3, PS)",target mRNA inhibition,1 µM,49%
"GTATTTGGGTGTTCTG (sugars k3 d10 k3, PS)",target mRNA inhibition,1 µM,36%
"TCTCTCCATCATCGAT (sugars k3 d10 k3, PS)",target mRNA inhibition,1 µM,24%
"TCGATCCTATATACAT (sugars k3 d10 k3, PS)",target mRNA inhibition,1 µM,40%
"ACTTGATCTCTTAGCT (sugars kkdddddddddkekek, PS)",target mRNA inhibition,1 µM,62%
"TAGAATAGTCTTCAGC (sugars k3 d1 m1 d8 k3, PS)",target mRNA inhibition,1 µM,30%
"TATGTAATAGCCAGTA (sugars k3 d9 k3 e1, PS)",target mRNA inhibition,0.02 µM,23%
same,target mRNA inhibition,0.078 µM,28%
same,target mRNA inhibition,0.313 µM,53%
same,target mRNA inhibition,1 µM,82%
same,target mRNA inhibition,1.25 µM,78%
same,target mRNA inhibition,5 µM,93%
"TAAACATCTCTGGGAC (sugars kkdddddddddkekek, PS)",target mRNA inhibition,1 µM,39%
"GTAAAGTTTGTTAGAG (sugars k3 d10 k3, PS)",target mRNA inhibition,1 µM,54%
"TATTCTCCAACTCAGG (sugars k3 d10 k3, PS)",target mRNA inhibition,1 µM,54%
"GTAATTCTAAACTAGT (sugars k3 d10 k3, PS)",target mRNA inhibition,1 µM,39%
"ATCTATCAGACTTCTT (sugars k3 d10 k3, PS)",target mRNA inhibition,1 µM,47%
"ATCACAAGTAAGGTAA (sugars k3 d10 k3, PS)",target mRNA inhibition,1 µM,62%
"TTACAGCATCAAGACA (sugars k3 d9 k3 e1, PS)",target mRNA inhibition,1 µM,44%
"TCCTAGGATGTTGACC (sugars k3 d10 k3, PS)",target mRNA inhibition,1 µM,0%
"TGAACATACATTGTTG (sugars k3 d10 k3, PS)",target mRNA inhibition,1 µM,29%
"CAGGTAATTAATCTTG (sugars k3 d10 k3, PS)",target mRNA inhibition,1 µM,54%
"GTCACCTTTCATAATG (sugars k3 d1 m1 d8 k3, PS)",target mRNA inhibition,1 µM,40%
"CAAGTAAGGTAAAGTC (sugars k3 d10 k3, PS)",target mRNA inhibition,1 µM,33%
"TTGGTAAGTATTCCAT (sugars k3 d9 k3 e1, PS)",target mRNA inhibition,1 µM,28%
"GAAATTGATACACCAA (sugars k3 d9 k3 e1, PS)",target mRNA inhibition,1 µM,64%
"CAATAATAATGGGCAG (sugars k3 d10 k3, PS)",target mRNA inhibition,1 µM,43%
"GTGTTCTTGTTGATAT (sugars kkdddddddddkekek, PS)",target mRNA inhibition,1 µM,63%
"AGGATACCTGAAAAGC (sugars k3 d10 k3, PS)",target mRNA inhibition,0.02 µM,13%
same,target mRNA inhibition,0.078 µM,23%
same,target mRNA inhibition,0.313 µM,54%
same,target mRNA inhibition,1 µM,81%
same,target mRNA inhibition,1.25 µM,70%
same,target mRNA inhibition,5 µM,88%
"CTGTGTTAGCTTTAAT (sugars k3 d9 k3 e1, PS)",target mRNA inhibition,1 µM,50%
"AGAAATTCACCTTGAC (sugars k3 d1 m1 d8 k3, PS)",target mRNA inhibition,1 µM,9%
"TCTACAAAACTGGTAT (sugars k3 d10 k3, PS)",target mRNA inhibition,1 µM,9%
"TTCTGTAGGACTCTGC (sugars k3 d10 k3, PS)",target mRNA inhibition,1 µM,72%
"GATAAAATAGGGTGCA (sugars k3 d10 k3, PS)",target mRNA inhibition,1 µM,52%
"TTACAGCATCAAGACA (sugars k3 d10 k3, PS)",target mRNA inhibition,1 µM,46%
"CTCTTGGGTCCATTGT (sugars k3 d10 k3, PS)",target mRNA inhibition,1 µM,40%
"TATTATGTGATTGAGT (sugars k3 d9 k3 e1, PS)",target mRNA inhibition,1 µM,51%
"AGAGCGATAGATCTCT (sugars k3 d10 k3, PS)",target mRNA inhibition,1 µM,8%
"ACAGTAAAATTATGCC (sugars kkdddddddddkekek, PS)",target mRNA inhibition,1 µM,28%
"GTTGATAAAATAGGGT (sugars k3 d10 k3, PS)",target mRNA inhibition,1 µM,42%
"AATTGATACACCAATG (sugars k3 d10 k3, PS)",target mRNA inhibition,1 µM,55%
"TAATACGACTTCCTTC (sugars k3 d10 k3, PS)",target mRNA inhibition,1 µM,32%
"CTATCATGCCTTCCCC (sugars k3 d10 k3, PS)",target mRNA inhibition,1 µM,1%
"GCTTTGAAGACAATAC (sugars k3 d10 k3, PS)",target mRNA inhibition,1 µM,42%
"CATAGCTAACTCAGGC (sugars k3 d10 k3, PS)",target mRNA inhibition,1 µM,29%
"GTGTAGAATTGTCTGT (sugars k3 d10 k3, PS)",target mRNA inhibition,1 µM,42%
"CTCTGGGACCAAGGAT (sugars k3 d1 m1 d8 k3, PS)",target mRNA inhibition,1 µM,43%
"TCTTATCTTGGGCACC (sugars k3 d10 k3, PS)",target mRNA inhibition,1 µM,44%
"CATAGACATGTGTTCA (sugars k3 d10 k3, PS)",target mRNA inhibition,1 µM,52%
"GATGTTAGGACCCAGT (sugars k3 d10 k3, PS)",target mRNA inhibition,1 µM,64%
"GATTAAGCAGAATTGT (sugars k3 d10 k3, PS)",target mRNA inhibition,1 µM,37%
"TAGAGTTGCACCGTTT (sugars k3 d10 k3, PS)",target mRNA inhibition,1 µM,58%
"AATAATAGCTCTATTG (sugars k3 d10 k3, PS)",target mRNA inhibition,1 µM,0%
"CTTACTAAGGAAATTC (sugars k3 d10 k3, PS)",target mRNA inhibition,1 µM,19%
"GTAATCACAAGTAAGG (sugars kkdddddddddkekek, PS)",target mRNA inhibition,0.02 µM,0%
same,target mRNA inhibition,0.078 µM,2%
same,target mRNA inhibition,0.313 µM,35%
same,target mRNA inhibition,1 µM,72%
same,target mRNA inhibition,1.25 µM,49%
same,target mRNA inhibition,5 µM,70%
"TTAATTTTCGGGTTCT (sugars k3 d10 k3, PS)",target mRNA inhibition,1 µM,31%
"AAAATAGAGTCGGTCA (sugars k3 d9 k3 e1, PS)",target mRNA inhibition,1 µM,65%
"TTTAAAATAGAGTCGG (sugars kkdddddddddkekek, PS)",target mRNA inhibition,1 µM,43%
"TGAGTTACATTACAGC (sugars k3 d10 k3, PS)",target mRNA inhibition,0.02 µM,16%
same,target mRNA inhibition,0.078 µM,34%
same,target mRNA inhibition,0.313 µM,72%
same,target mRNA inhibition,1 µM,90%
same,target mRNA inhibition,1.25 µM,86%
same,target mRNA inhibition,5 µM,89%
"CTTATGAAGTTAGTAT (sugars k3 d10 k3, PS)",target mRNA inhibition,1 µM,43%
"GCTGAGTGGATTACAT (sugars k3 d10 k3, PS)",target mRNA inhibition,1 µM,44%
"AGCCAGTACAGTTCCT (sugars k3 d9 k3 e1, PS)",target mRNA inhibition,1 µM,59%
"GTAAUCACAAGTAAGG (sugars k3 d1 m1 d8 k3, PS)",target mRNA inhibition,1 µM,20%
"GAGTATGACAACTGGA (sugars k3 d10 k3, PS)",target mRNA inhibition,1 µM,23%
"ACAGGATAGAGCACAT (sugars k3 d10 k3, PS)",target mRNA inhibition,1 µM,44%
"GGAAATTCACAATCTA (sugars k3 d10 k3, PS)",target mRNA inhibition,1 µM,22%
"TCACCTTATTAATATC (sugars k3 d10 k3, PS)",target mRNA inhibition,1 µM,0%
"ACGGUGATCAAATGTA (sugars k3 d1 m1 d8 k3, PS)",target mRNA inhibition,1 µM,18%
"CAAGAGGATAGTCCAT (sugars k3 d1 m1 d8 k3, PS)",target mRNA inhibition,1 µM,60%
"CTCCCACAAAACTAAC (sugars k3 d10 k3, PS)",target mRNA inhibition,1 µM,13%
"TGTACAAATTTATGCC (sugars k3 d10 k3, PS)",target mRNA inhibition,1 µM,67%
"ATACAGGCCATAATCT (sugars k3 d10 k3, PS)",target mRNA inhibition,1 µM,0%
"AGAATAGGAGAGTCTT (sugars k3 d10 k3, PS)",target mRNA inhibition,1 µM,64%
"TATTCTCTTGACAATG (sugars k3 d10 k3, PS)",target mRNA inhibition,1 µM,47%
"GTTGATATTTCCATCT (sugars k3 d10 k3, PS)",target mRNA inhibition,1 µM,55%
"GTCTUGATGTAGTGGG (sugars k3 d1 m1 d8 k3, PS)",target mRNA inhibition,1 µM,63%
"CCCATAACCATAGGAC (sugars k3 d10 k3, PS)",target mRNA inhibition,1 µM,47%
"TCTCAGAGTTCAGGCA (sugars k3 d10 k3, PS)",target mRNA inhibition,1 µM,54%
"ATTAAGTACTGTGAGA (sugars k3 d10 k3, PS)",target mRNA inhibition,1 µM,1%
